Assay results published in patent US20240207198A1, “ELECTROSPUN STRUCTURES HAVING A PHARMACEUTICAL AND METHODS OF MAKING AND USING THE SAME” (NFS IP Holdings, LLC, priority 2020, published 2024).
Counter-ions that a name gives are not always drawn.

What was measured:
[1] = Oral vs. sublingual delivery of cannabidiol in a porcine model (plasma concentration by HPLC); type: in vivo, Yorkshire pigs; details: sublingual electrospun polyethylene oxide fiber scaffold ("strip") vs oral "gummy"; 10 mg cannabidiol each; representative pig 7-18; blood 3-120 min; FIG. 3
Description: Four healthy Yorkshire pigs were selected to receive both oral and sublingual administrations of cannabidiol (i.e., each animal received both an oral administration and a sublingual administration separated by 48 hours). For the sublingual administration, a scaffold comprising fibers as described herein was used for each animal. Specifically, the fibers were electrospun using a polymer solution comprising cannabidiol and 13 wt % 100,000 molecular weight polyethylene oxide dissolved in dichloromethane. The cannabidiol was dispersed within the resulting electrospun polyethylene oxide fibers, as described herein. The resulting electrospun polyethylene oxide fibers comprised 40 wt % cannabidiol (relative to the polyethylene oxide mass) and 50 wt % confectionary sugar (i.e., for every 10 mg of polyethylene oxide, 4 mg of cannabidiol and 5 mg of confectionary sugar were added).
(§1) The scaffold was placed under the tongue of each animal and allowed to dissolve in place. A catheter was placed in the animal's vein and used to withdraw blood at baseline and at 3, 9, 15, 30, 45, 60, and 120 minutes post-administration. […]
Each blood sample was analyzed using high-performance liquid chromatography (HPLC) to determine the plasma concentration of cannabidiol in ng/mL. […]

[2] = Oral vs. sublingual delivery of sildenafil citrate in a porcine model (plasma concentration by HPLC); type: in vivo, Yorkshire pigs; details: sublingual electrospun polyethylene oxide fiber scaffold ("strip") vs oral "pill", 25 mg sildenafil citrate each, representative pig 4-17, FIG. 4
Description: Four healthy Yorkshire pigs were selected to receive both oral and sublingual administrations of sildenafil citrate (i.e., each animal received both an oral administration and a sublingual administration separated by 48 hours). For the sublingual administration, a scaffold comprising fibers as described herein was used for each animal. Specifically, the fibers comprised were electrospun using a polymer solution comprising sildenafil citrate and 13 wt % 100,000 molecular weight polyethylene oxide dissolved in dichloromethane. The sildenafil citrate was dispersed within the resulting electrospun polyethylene oxide fibers, as described herein. The resulting electrospun polyethylene oxide fibers comprised 25 wt % sildenafil citrate (relative to the polyethylene oxide mass) and 50 wt % confectionary sugar (i.e., for every 10 mg of polyethylene oxide, 2.5 mg of sildenafil citrate and 5 mg of confectionary sugar were added).
as §1
Each blood sample was analyzed using HPLC to determine the plasma concentration of sildenafil citrate in ng/mL. […]

SMILES	plasma concentration of cannabidiol, sublingual compared to oral administration [1]	duration of the higher plasma concentration of sildenafil citrate, sublingual compared to oral administration [2]	plasma concentration of sildenafil citrate, sublingual compared to oral administration ([2]; blood 3-120 min)
C=C(C)[C@@H]1CCC(C)=C[C@H]1c1c(O)cc(CCCCC)cc1O [cannabidiol]	higher plasma concentration in a shorter period of time		
CCCc1nn(C)c2c(=O)[nH]c(-c3cc(S(=O)(=O)N4CCN(C)CC4)ccc3OCC)nc12 [sildenafil citrate]		maintained the higher plasma concentration over a longer period of time	higher plasma concentration in a shorter period of time
